Here are results for two molecules from ChEMBL document CHEMBL1156105 (J Med Chem, 2009).

The test system of data set [1] is Plasma. As to the kind of experiment: Metabolic stability in 50% human plasma assessed as half life at pH 7.4 by RP-HPLC. In kind it is ADME, cell-free.
The nature of data set [2]: Metabolic stability in 10% human plasma assessed as half life at pH 7.4 by RP-HPLC.
Data set [3] deals with Plasma. The data set is described as follows: Metabolic stability in 10% human plasma assessed as aspirin release at pH 7.4 by RP-HPLC. Further: time not given here. Format: ADME, cell-free.
The test system of data set [4] is Plasma. As to the kind of experiment: Metabolic stability in 50% human plasma assessed as aspirin release at pH 7.4 by RP-HPLC. Further: time not given here. In kind it is ADME, cell-free.
Data set [5] can be described thus: Metabolic stability in 50% human plasma assessed as half life at pH 7.4 by RP-HPLC.
The subject of data set [6] is Plasma. As to the kind of experiment: Metabolic stability in 50% human plasma assessed as aspirin release at pH 7.4 by RP-HPLC in presence of AChE-inhibitor PMSF. In kind it is ADME, cell-free.
For data set [7], the system named is Plasma. The data set is described as follows: Metabolic stability in 50% human plasma assessed as half life at pH 7.4 by RP-HPLC in presence of cholinesterase-inhibitor eserine. In kind it is ADME, cell-free.
The subject of data set [8] is Plasma. The data set is described as follows: Metabolic stability in 50% human plasma assessed as aspirin release at pH 7.4 by RP-HPLC in presence of BuChE-inhibitor dibucaine. In kind it is ADME, cell-free.
Data set [9] concerns Plasma. As to the kind of experiment: Metabolic stability in 50% human plasma assessed as half life at pH 7.4 by RP-HPLC in presence of AChE-inhibitor PMSF. In kind it is ADME, cell-free.
Data set [10] concerns Plasma. As to the kind of experiment: Metabolic stability in 50% human plasma assessed as half life at pH 7.4 by RP-HPLC in presence of BuChE-inhibitor dibucaine. Format: ADME, cell-free.
For data set [11], the system named is Plasma. The data set is described as follows: Metabolic stability in 50% human plasma assessed as half life at pH 7.4 by RP-HPLC in presence of BuChE-inhibitor isoOMPA. Format: ADME, cell-free.

For `CC(=O)Oc1ccccc1C(=O)O[C@H]1CO[C@H]2[C@@H]1OC[C@H]2OC(=O)c1cnoc1C`, in [1], the t1/2 is given as 0.06 min. In addition, in data set [2], the half-life was 11.6 min. Also, the Activity in [3] was 18%; in data set [4], 14%.

`CC(=O)Oc1ccccc1C(=O)O[C@H]1CO[C@H]2[C@@H]1OC[C@H]2O[N+](=O)[O-]`: the half-life in [5] is 0.188 min; in data set [2], 0.867 min. Besides, the Activity is listed as 9.1% in data set [3], 6.2% in [6], 7.7% in data set [4] and 6.75% in data set [8]. The t1/2 in [7] was 178 min; in data set [9] it was 2.9 min; in data set [10], 4.2 min; in [11], 38.3 min.

For orientation: half-life means the time in which the quantity being followed falls by half.
